Laboratory results as given in US5852210A, “Cinnamic acid derivatives” (G. D. Searle & Co., priority 1997, dated 1998).
pIC50: −log10 of the molar value. Where a name gives a salt, the structure may show the parent alone.

What was measured:
[1] = target: T1, Human fibrinogen receptor (αIIb β3) (Homo sapiens, UniProt P05106+P08514); assay: Purified IIb/IIIa receptor assay (solid phase receptor assay); settings: inhibition of binding of biotinylated human vitronectin (1 nM) to purified receptor; Table I
T1 construct: Human fibrinogen receptor (αIIb β3) was purified from outdated platelets; from tissue; host or cells: human outdated platelets
T1 sequence (P08514 32-887 limits assumed): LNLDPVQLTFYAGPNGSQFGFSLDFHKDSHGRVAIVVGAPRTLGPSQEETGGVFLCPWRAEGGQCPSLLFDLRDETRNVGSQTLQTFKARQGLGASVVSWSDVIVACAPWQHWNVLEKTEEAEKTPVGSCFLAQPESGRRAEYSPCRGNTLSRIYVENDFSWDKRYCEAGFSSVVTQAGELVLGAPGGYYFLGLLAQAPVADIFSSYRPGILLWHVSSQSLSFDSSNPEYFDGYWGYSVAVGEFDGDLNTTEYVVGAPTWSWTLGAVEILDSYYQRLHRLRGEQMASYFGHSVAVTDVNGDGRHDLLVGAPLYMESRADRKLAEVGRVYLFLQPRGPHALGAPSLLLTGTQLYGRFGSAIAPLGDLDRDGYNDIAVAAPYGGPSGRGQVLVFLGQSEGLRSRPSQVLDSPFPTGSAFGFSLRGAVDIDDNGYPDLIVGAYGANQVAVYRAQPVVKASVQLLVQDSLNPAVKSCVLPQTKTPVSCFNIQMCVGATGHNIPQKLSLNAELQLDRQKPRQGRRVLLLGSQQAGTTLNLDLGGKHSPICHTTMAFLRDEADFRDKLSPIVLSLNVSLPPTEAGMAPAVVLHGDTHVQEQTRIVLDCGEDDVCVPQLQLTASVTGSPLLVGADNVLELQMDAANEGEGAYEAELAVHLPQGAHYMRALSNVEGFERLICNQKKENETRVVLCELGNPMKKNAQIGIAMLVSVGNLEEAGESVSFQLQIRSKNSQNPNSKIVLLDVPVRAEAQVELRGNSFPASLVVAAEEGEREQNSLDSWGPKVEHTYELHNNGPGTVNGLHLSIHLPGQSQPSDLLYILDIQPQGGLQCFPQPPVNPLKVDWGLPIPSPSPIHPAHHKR
T1 sequence (P08514 891-1039 limits assumed): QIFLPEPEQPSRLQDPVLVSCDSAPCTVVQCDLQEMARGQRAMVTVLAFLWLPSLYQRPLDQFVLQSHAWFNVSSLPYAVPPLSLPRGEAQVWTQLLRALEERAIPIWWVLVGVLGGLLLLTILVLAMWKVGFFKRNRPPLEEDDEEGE
T1 sequence (P05106 27-788): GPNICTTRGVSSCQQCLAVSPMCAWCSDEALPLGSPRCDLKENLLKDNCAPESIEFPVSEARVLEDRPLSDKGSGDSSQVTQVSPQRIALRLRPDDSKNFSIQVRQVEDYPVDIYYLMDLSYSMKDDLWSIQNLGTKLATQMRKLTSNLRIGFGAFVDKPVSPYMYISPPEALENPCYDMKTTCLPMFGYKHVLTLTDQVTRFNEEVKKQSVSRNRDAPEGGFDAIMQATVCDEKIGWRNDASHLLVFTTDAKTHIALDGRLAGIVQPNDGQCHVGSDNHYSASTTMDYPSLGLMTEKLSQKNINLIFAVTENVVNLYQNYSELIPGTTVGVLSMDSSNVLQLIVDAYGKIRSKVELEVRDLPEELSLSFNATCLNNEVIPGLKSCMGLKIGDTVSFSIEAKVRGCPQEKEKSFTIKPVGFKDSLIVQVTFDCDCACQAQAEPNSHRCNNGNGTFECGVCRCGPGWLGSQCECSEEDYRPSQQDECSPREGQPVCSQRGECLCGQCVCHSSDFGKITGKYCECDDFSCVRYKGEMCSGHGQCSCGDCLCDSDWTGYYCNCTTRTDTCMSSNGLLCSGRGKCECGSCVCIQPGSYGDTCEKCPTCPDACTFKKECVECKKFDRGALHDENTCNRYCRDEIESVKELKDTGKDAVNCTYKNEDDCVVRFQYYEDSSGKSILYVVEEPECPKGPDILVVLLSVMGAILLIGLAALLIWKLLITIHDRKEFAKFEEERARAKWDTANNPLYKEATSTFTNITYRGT
Procedure: (§1) The activity of the compounds of the present invention was tested in the following assays.
Human fibrinogen receptor (αIIb β3) was purified from outdated platelets. (Pytela, R., Pierschbacher, M. D., Argraves, S., Suzuki, S., and Rouslahti, E. "Arginine-Glycine-Aspartic acid adhesion receptors", Methods in Enzymology 144(1987):475-489.) Human vitronectin was purified from fresh frozen plasma as described in Yatohgo, T., Izumi, M., Kashiwagi, H., and Hayashi, M., "Novel purification of vitronectin from human plasma by heparin affinity chromatography," Cell Structure and Function 13(1988):281-292. Biotinylated human vitronectin was prepared by coupling NHS-biotin from Pierce Chemical Company (Rockford, Ill.) to purified vitronectin as previously described. (Charo, I. F., Nannizzi, L., Phillips, D. R., Hsu, M. A., Scarborough, R. M., "Inhibition of fibrinogen binding to GP IIb/IIIa by a GP IIIa peptide", J. Biol. Chem. 266(3) (1991): 1415-1421.) Assay buffer, OPD substrate tablets, and RIA grade BSA were obtained from Sigma (St. Louis, Mo.). Anti-biotin antibody was obtained from Calbiochem (La Jolla, Calif.). Linbro microtiter plates were obtained from Flow Labs (McLean, Va.). ADP reagent was obtained from Sigma (St. Louis, Mo.).
(§2) Solid Phase Receptor Assays
This assay is essentially the same reported in Niiya, K., Hodson, E., Bader, R., Byers-Ward, V. Koziol, J. A., Plow, E. F. and Ruggeri, Z. M., "Increased surface expression of the membrane glycoprotein IIb/IIIa complex induced by platelet activation: Relationships to the binding of fibrinogen and platelet aggregation", Blood 70 (1987):475-483. The purified human fibrinogen receptor (αIIb β3) was diluted from stock solutions to 1.0 μg/mL in Tris-buffered saline containing 1.0 mM Ca^++, Mg^++, and Mn^++, pH 7.4 (TBS^+++). The diluted receptor was immediately transferred to Linbro microtiter plates at 100 μL/well (100 ng receptor/well). The plates were sealed and incubated overnight at 4° C. to allow the receptor to bind to the wells. All remaining steps were at room temperature. The assay plates were emptied and 200 μL of 1% RIA grade BSA in TBS^+++ (TBS^+++ /BSA) were added to block exposed plastic surfaces. Following a 2 hour incubation, the assay plates were washed with TBS^+++ using a 96 well plate washer. Logarithmic serial dilution of the test compound and controls were made starting at a stock concentration of 2 mM and using 2 nM biotinylated vitronectin in TBS^+++ /BSA as the diluent. This premixing of labeled ligand with test (or control) ligand, and subsequent transfer of 50 μL aliquots to the assay plate was carried out with a CETUS Propette robot; the final concentration of the labeled ligand was 1 nM and the highest concentration of test compound was 1.0×10^-4 M. The competition occurred for two hours after which all wells were washed with a plate washer as before. Affinity purified horseradish peroxidase labeled goat anti-biotin antibody was diluted 1:3000 in TBS^+++ /BSA and 125 μL were added to each well. After 30 minutes, the plates were washed and incubated with […]/H2 O2 substrate in 100 mM/L citrate buffer, pH 5.0. The plate was read with a microtiter plate reader at a wavelength of 450 nm and when the maximum-binding control wells reached an absorbance of about 1.0, the final A450 were recorded for analysis. The data were analyzed using a macro written for use with the EXCEL™ spreadsheet program. The mean, standard deviation, and % CV were determined for duplicate concentrations. The mean A450 values were normalized to the mean of four maximum-binding controls (no competitor added) (B-MAX). The normalized values were subjected to a four parameter curve fit algorithm, [Robard et al., Int.

[2] = target: T2, Human vitronectin receptor (αv β3) (Homo sapiens, UniProt P05106+P06756); assay: Vitronectin adhesion assay (solid phase receptor assay, αvβ3); format: binding; settings: inhibition of binding of biotinylated human vitronectin (1 nM) to purified receptor; Table I; read-out: AvB3 IC50
T2 construct: Human vitronectin receptor (αv β3) was purified from human placenta; from tissue; host or cells: human placenta
T2 sequence (P06756 31-889 limits assumed): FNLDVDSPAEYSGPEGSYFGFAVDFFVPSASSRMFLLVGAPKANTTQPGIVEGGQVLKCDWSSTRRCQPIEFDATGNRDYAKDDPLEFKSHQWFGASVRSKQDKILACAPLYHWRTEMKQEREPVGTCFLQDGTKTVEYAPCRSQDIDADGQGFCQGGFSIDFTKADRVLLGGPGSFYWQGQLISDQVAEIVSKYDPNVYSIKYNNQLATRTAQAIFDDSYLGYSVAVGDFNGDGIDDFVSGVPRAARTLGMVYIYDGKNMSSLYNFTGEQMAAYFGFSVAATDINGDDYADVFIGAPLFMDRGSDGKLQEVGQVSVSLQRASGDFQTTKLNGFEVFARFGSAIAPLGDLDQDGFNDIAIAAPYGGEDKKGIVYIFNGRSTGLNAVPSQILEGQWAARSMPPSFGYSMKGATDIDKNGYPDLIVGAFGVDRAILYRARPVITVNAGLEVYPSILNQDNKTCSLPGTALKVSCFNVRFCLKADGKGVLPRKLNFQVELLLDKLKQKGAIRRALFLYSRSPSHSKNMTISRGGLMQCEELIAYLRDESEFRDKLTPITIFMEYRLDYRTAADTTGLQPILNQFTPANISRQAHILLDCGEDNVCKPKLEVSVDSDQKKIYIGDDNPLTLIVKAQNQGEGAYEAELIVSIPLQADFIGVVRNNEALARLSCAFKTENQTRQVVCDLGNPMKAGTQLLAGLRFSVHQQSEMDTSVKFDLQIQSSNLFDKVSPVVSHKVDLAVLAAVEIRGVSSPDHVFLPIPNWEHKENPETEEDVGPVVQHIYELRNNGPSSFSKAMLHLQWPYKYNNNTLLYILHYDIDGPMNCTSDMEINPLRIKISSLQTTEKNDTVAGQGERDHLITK
T2 sequence (P06756 891-1048 limits assumed): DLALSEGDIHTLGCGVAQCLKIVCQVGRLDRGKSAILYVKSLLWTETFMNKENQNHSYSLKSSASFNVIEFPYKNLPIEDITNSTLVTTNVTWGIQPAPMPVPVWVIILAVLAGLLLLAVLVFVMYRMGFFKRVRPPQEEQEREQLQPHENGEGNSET
T2 sequence (P05106 27-788): as the sequence (P05106 27-788) above
Procedure: as §1
Human vitronectin receptor (αv β3) was purified from human placenta as previously described [Pytela et al., Methods in Enzymology, 144:475-489 (1987)]. Human vitronectin was purified from fresh frozen plasma as previously described [Yatohgo et al., Cell Structure and Function, 13:281-292 (1988)]. Biotinylated human vitronectin was prepared by coupling NHS-biotin from Pierce Chemical Company (Rockford, Ill.) to purified vitronectin as previously described [Charo et al., J. Biol. Chem., 266(3):1415-1421 (1991)]. Assay buffer, OPD substrate tablets, and RIA grade BSA were obtained from Sigma (St. Louis, Mo.). Anti-biotin antibody was obtained from Calbiochem (La Jolla, Calif.). Linbro microtiter plates were obtained from Flow Labs (McLean, Va.). ADP reagent was obtained from Sigma (St. Louis, Mo.).
as §2
This assay was essentially the same as previously reported [Niiya et al., Blood, 70:475-483 (1987)]. The purified human vitronectin receptor (αv β3) was diluted from stock solutions to […] in Tris-buffered saline containing 1.0 mM Ca^++, Mg^++, and Mn^++, pH 7.4 (TBS^+++). The diluted receptor was immediately transferred to Linbro microtiter plates at 100 μL/well (100 ng receptor/well). The plates were sealed and incubated overnight at 4° C. to allow the receptor to bind to the wells. All remaining steps were at room temperature. The assay plates were emptied and 200 μL, of 1% RIA grade BSA in TBS^+++ (TBS^+++ /BSA) were added to block exposed plastic surfaces. Following a 2 hour incubation, the assay plates were washed with TBS^+++ using a 96 well plate washer. Logarithmic serial dilution of the test compound and controls were made starting at a stock concentration of 2 mM and using 2 nM biotinylated vitronectin in TBS^+++ /BSA as the diluent. This premixing of labeled ligand with test (or control) ligand, and subsequent transfer of 50 μL aliquots to the assay plate was carried out with a CETUS Propette robot; the final concentration of the labeled ligand was 1 nM and the highest concentration of test compound was 1.0×10^-4 M. The competition occurred for two hours after which all wells were washed with a plate washer as before. Affinity purified horseradish peroxidase labeled goat anti-biotin antibody was diluted 1:3000 in TBS^+++ /BSA and 125 μL were added to each well. After 30 minutes, the plates were washed and incubated with OPD/H2 O2 substrate in 100 mM/L Citrate buffer, pH 5.0. The plate was read with a microtiter plate reader at a wavelength of 450 nm and when the maximum-binding control wells reached an absorbance of about 1.0, the final A450 were recorded for analysis. The data were analyzed using a macro written for use with the EXCEL™ spreadsheet program. The mean, standard deviation, and % CV were determined for duplicate concentrations. The mean A450 values were normalized to the mean of four maximum-binding controls (no competitor added) (B-MAX). The normalized values were subjected to a four parameter curve fit algorithm [Rodbard et al., Int.

pIC50 [1]	pIC50 [2]	Compound
5.67	7.64	Cc1cc(/C=C/C(=O)O)cc(C)c1NC(=O)c1cccc(NC(=N)N)c1 [Example 13, 3-[4-[[[3-[(aminoiminomethyl)amino]phenyl]carbonyl]-amino]-3,5-dimethylphenyl]-2E-propenoic acid, trifluoroacetate salt]
5.58	7.54	Cc1cc(/C=C/C(=O)O)cc(Cl)c1NC(=O)c1cccc(NC(=N)N)c1 [Example 15, 3-[4-[[[3-[(aminoiminomethyl)amino]phenyl]carbonyl]-amino]-3-chloro-5-methylphenyl]-2E-propenoic acid, trifluoroacetate salt]
7.60	7.29	N=C(N)Nc1cccc(C(=O)Nc2ccc(/C=C/C(=O)O)c3ccccc23)c1 [Example 16, 3-[4-[[[3-[(aminoiminomethyl)amino]phenyl]carbonyl]-amino]naphthalen-1-yl]-2E-propenoic acid, trifluoroacetate salt]
6.74	9.34	Cc1cc(/C=C/C(=O)O)ccc1NC(=O)c1cccc(NC2=NCCCN2)c1 [Example 18, 3-[3-methyl-4-[[[3-[(1,4,5,6-tetrahydropyrimidin-2-yl)amino]phenyl]carbonyl]amino]phenyl]propenoic acid, trifluoroacetate salt]
6.36	9.28	CCc1cc(/C=C/C(=O)O)ccc1NC(=O)c1cccc(NC2=NCCCN2)c1 [Example 19, 3-[3-ethyl-4-[[[3-[(1,4,5,6-tetrahydropyrimidin-2-yl)amino]phenyl]carbonyl]amino]phenyl]propenoic acid, trifluoroacetate salt]
6.90	9.31	CCc1cc(/C=C/C(=O)O)ccc1NC(=O)c1cccc(NC2=NCCN2)c1 [Example 21, 3-[4-[[[3-[(4,5-dihydro-1H-imidazol-2-yl)amino]-phenyl]carbonyl]amino]-3-ethylphenyl]propenoic acid, trifluoroacetate salt]
6.63	9.32	O=C(O)/C=C/c1ccc(NC(=O)c2cccc(NC3=NCCCN3)c2)c(Cl)c1 [Example 22, 3-[3-chloro-4-[[[3-[(1,4,5,6-tetrahydropyrimidin-2-yl)amino]phenyl]carbonyl]amino]phenyl]propenoic acid, trifluoroacetate salt]
7.10	9.51	O=C(O)/C=C/c1ccc(NC(=O)c2cccc(NC3=NCCN3)c2)c(Cl)c1 [Example 23, 3-[3-chloro-4-[[[3-[(4,5-dihydro-1H-imidazol-2-yl)amino]-phenyl]carbonyl]amino]phenyl]-2E-propenoic acid, trifluoroacetate salt]
5.08	8.31	Cc1cc(/C=C/C(=O)O)cc(C)c1NC(=O)c1cccc(NC2=NCCCN2)c1 [Example 24, 3-[3,5-dimethyl-4-[[[3-[(1,4,5,6-tetrahydropyrimidin-2-yl)amino]phenyl]carbonyl]amino]phenyl]-2E-propenoic acid, bis(trifluoroacetate salt)]
5.74	8.55	Cc1cc(/C=C/C(=O)O)cc(C)c1NC(=O)c1cccc(NC2=NCCN2)c1 [Example 25, 3-[4-[[[3-[(4,5-dihydroimidazol-2-yl)amino]-phenyl]carbonyl]amino]-3,5-dimethylphenyl]-2E-propenoic acid, trifluoroacetate salt]
< 4.00	6.69	Cc1cc(/C=C/C(=O)O)cc(C)c1NC(=O)c1cccc(NC(N)=O)c1 [Example 27, 3-[4-[[[3-[(aminocarbonyl)amino]phenyl]carbonyl]-amino]-3,5-dimethylphenyl]propenoic acid, trifluoroacetate salt]
4.60	5.74	N=C(N)Nc1cccc(C(=O)Nc2cc(Cl)c(/C=C/C(=O)O)c(Cl)c2)c1 [Example 29, 3-[4-[[[3-[(aminoiminomethyl)amino]phenyl]carbonyl]-amino]-2,6-dichlorophenyl]propenoic acid, dihydrochloride dihydrate]
7.16	8.02	COc1cc(NC(=O)c2cccc(NC(=N)N)c2)ccc1/C=C/C(=O)O [Example 31, 3-[4-[[[3-(aminoiminomethyl)amino]phenyl]carbonyl]-amino]-2-methoxyphenyl]propenoic acid, trifluoroacetate salt]
6.92	7.13	Cc1cc(NC(=O)c2cccc(NC(=N)N)c2)ccc1/C=C/C(=O)O [Example 33, 3-[4-[[[3-[(aminoiminomethyl)amino]phenyl]carbonyl]-amino]-2-methylphenyl]propenoic acid, trifluoroacetate salt]
6.82	6.91	N=C(N)Nc1cccc(C(=O)Nc2ccc(/C=C/C(=O)O)c(C(F)(F)F)c2)c1 [Example 35, trifluoroacetate salt]
8.04	8.91	N=C(N)Nc1cccc(C(=O)Nc2ccc(/C=C/C(=O)O)c(C(=O)O)c2)c1 [Example 36, 5-[[[3-[(aminoiminomethyl)amino]phenyl]carbonyl]amino]-2-(2-carboxyethenyl)benzoic acid, trifluoroacetate salt]
